The values that follow come from ChEMBL document CHEMBL3627672, “Structure-activity relationship study of syringolin A as a potential anticancer agent” (Bioorg Med Chem Lett, 2015).

The structures appear in SMILES notation.

Test [1] concerns the target T1, Proteasome Macropain subunit MB1 (Homo sapiens, UniProt P28074).
T1 sequence (P28074 whole entry): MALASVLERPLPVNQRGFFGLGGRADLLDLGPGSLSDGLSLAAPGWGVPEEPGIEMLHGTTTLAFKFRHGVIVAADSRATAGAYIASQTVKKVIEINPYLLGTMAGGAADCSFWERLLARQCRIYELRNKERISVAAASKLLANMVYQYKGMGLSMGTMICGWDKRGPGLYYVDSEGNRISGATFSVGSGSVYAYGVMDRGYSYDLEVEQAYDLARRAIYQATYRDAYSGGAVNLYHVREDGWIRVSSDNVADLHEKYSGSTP
Description: Inhibition of proteasome beta-5 (unknown origin).

Test [2] in a line: Cytotoxicity against human MM1S cells. The settings on record: MM1.S. It is filed as functional, cell-based.
The test system of a further test is A-431. Description: Antiproliferative activity against human A431 cells after 72 hrs by oxyluciferin luminescence assay. The conditions noted are these: A-431, 72 h.
The subject of a further test is CCRF-CEM. Description: Antiproliferative activity against human CCRF-CEM cells after 72 hrs by oxyluciferin luminescence assay.
In another test the test system is RKO. Description: Antiproliferative activity against human RKO cells after 72 hrs by oxyluciferin luminescence assay.
The nature of test [3]: Antiproliferative activity against human RPMI8266 cells after 72 hrs by oxyluciferin luminescence assay. The settings on record: RPMI8266, 72 h.
Another test relates to HCT-116. Description: Antiproliferative activity against human HCT116 cells after 72 hrs by oxyluciferin luminescence assay. The conditions noted are these: HCT-116, 72 h.
Test [4] can be described thus: Antiproliferative activity against human TOV21G cells after 72 hrs by oxyluciferin luminescence assay.
A short description of test [5]: Cytotoxicity against human RPMI8266 cells.

The Ki is a dissociation constant, usually derived from enzyme kinetics or from competition with a known ligand. Low values mean a stronger hold on the target, high ones a looser hold on the target. By IC50 is commonly meant the concentration needed to halve the response being measured. A high value points to lower potency. As for `CC(C)[C@H](NC(=O)N[C@H](C(=O)N[C@H]1/C=C/CCNC(=O)/C=C/[C@H](C(C)C)NC1=O)C(C)C)C(=O)O`, the Ki in test [1] was 843 nM. This compound also gave an IC50 in [2] of 8500 nM.
As for `CCCCCCCCCC(=O)N[C@@H](Cc1cccc2ccccc12)C(=O)N[C@H]1/C=C/CCNC(=O)/C=C/[C@H](C(C)C)NC1=O`, the IC50 in the test with A-431 was found to be 29.3 nM; in the test with CCRF-CEM it was 1.5 nM; with RKO, 31.3 nM; in test [3], 7.4 nM; in the test on HCT-116, 31 nM; in test [4] it was 13.2 nM.
Regarding `CCCCCCCCCC(=O)N[C@@H](Cc1ccc2ccccc2c1)C(=O)N[C@H]1/C=C/CCNC(=O)/C=C/[C@H](C(C)C)NC1=O`, the IC50 was determined as 17.8 nM with A-431; 5 nM with CCRF-CEM; 15.2 nM in the test on RKO; 10.9 nM in [3]; 18.5 nM in the test on HCT-116; 14.1 nM in [4].
On to `CCCCCCCCCC(=O)N[C@@H](Cc1ccco1)C(=O)N[C@H]1/C=C/CCNC(=O)/C=C/[C@H](C(C)C)NC1=O`, for which the IC50 amounted to 29.7 nM with A-431; 24.9 nM in the test on CCRF-CEM; 20.1 nM with RKO; 24.1 nM in test [3]; 26.7 nM in the test with HCT-116; 22.3 nM in test [4].
For the compound `CCCCCCCCCC(=O)N[C@@H](Cc1cccs1)C(=O)N[C@H]1/C=C/CCNC(=O)/C=C/[C@H](C(C)C)NC1=O`, the IC50 turned out to be 18.7 nM in the test on A-431; 11 nM with CCRF-CEM; 20.8 nM with RKO; 14.4 nM in test [3]; 15.5 nM with HCT-116; 16.7 nM in test [4].
`CCCCCCCCCC(=O)N[C@@H](Cc1ccsc1)C(=O)N[C@H]1/C=C/CCNC(=O)/C=C/[C@H](C(C)C)NC1=O`: the IC50 in the test on A-431 was determined as 15 nM; with CCRF-CEM it was 4.2 nM; in the test on RKO, 11.3 nM; in test [3], 5.7 nM; with HCT-116 it was 9.1 nM; in test [4], 10.2 nM.
For `CCCCCCCCCC(=O)N[C@@H](Cc1c[nH]c2ccccc12)C(=O)N[C@H]1/C=C/CCNC(=O)/C=C/[C@H](C(C)C)NC1=O`, the IC50 was 45.5 nM in the test on A-431; 16.8 nM in the test with CCRF-CEM; 39.4 nM with RKO; 27.5 nM in test [3]; 44.5 nM with HCT-116; 13.5 nM in test [4].
For `CCCCCCCCCC(=O)N(C)[C@@H](Cc1ccccc1)C(=O)N[C@H]1/C=C/CCNC(=O)/C=C/[C@H](C(C)C)NC1=O`, the IC50 in the test on A-431 is above 1000 nM; in the test on CCRF-CEM it was 197 nM; in the test with RKO it was above 1000 nM; in [3], above 1000 nM; with HCT-116, above 1000 nM; in test [4], above 1000 nM.
For `CCCCCCCCCC(=O)N1CCC[C@]1(Cc1ccccc1)C(=O)N[C@H]1/C=C/CCNC(=O)/C=C/[C@H](C(C)C)NC1=O`, the IC50 (in the test with A-431; in the test on CCRF-CEM; with RKO; in test [3]; with HCT-116; in test [4]) was above 1000 nM in each case.
On to `CCCCCCCCCC(=O)N[C@H](CC(=O)N[C@H]1/C=C/CCNC(=O)/C=C/[C@H](C(C)C)NC1=O)Cc1ccccc1`, for which the IC50 with A-431 was 191 nM; in the test on CCRF-CEM, 221 nM; in the test on RKO, 244 nM; in test [3], 255 nM; with HCT-116 it was 434 nM; in test [4], 212 nM.
For `CCCCCCCCCC(=O)N[C@@H](Cc1ccccc1)C(=O)N[C@H]1/C=C/CCNC(=O)/C=C/[C@H](C(C)C)NC1=O`, the IC50 is 14.1 nM in the test on A-431; 4.3 nM with CCRF-CEM; 2.2 nM in test [5]; 11.8 nM in the test on RKO; 9 nM in [3]; 12.6 nM in the test with HCT-116. Moreover, the midpoint of inhibition in [4], the IC50, lay at 12.3 nM.
Turning to `CCCCCCCCCC(=O)N[C@@H](Cc1ccncc1)C(=O)N[C@H]1/C=C/CCNC(=O)/C=C/[C@H](C(C)C)NC1=O`, the IC50 in the test on A-431 is 50.3 nM; with CCRF-CEM, 35.7 nM; with RKO it was 47.3 nM; in [3], 72.6 nM; in the test with HCT-116, 56.3 nM; in test [4], 14.5 nM.
For `CCCCCCCCCC(=O)N[C@@H](Cc1ccc(-c2ccccc2)cc1)C(=O)N[C@H]1/C=C/CCNC(=O)/C=C/[C@H](C(C)C)NC1=O`, the IC50 stood at 21.9 nM with A-431; 12.3 nM in the test on CCRF-CEM; 30.4 nM in the test on RKO; 19.7 nM in [3]; 27.1 nM with HCT-116; 16.8 nM in test [4].
For the compound `CC(C)C[C@H](NC(=O)[C@H](Cc1ccccc1)NC(=O)c1cnccn1)B(O)O` [BORTEZOMIB], the IC50 worked out at 28.2 nM in the test on A-431; 11 nM with CCRF-CEM; 20.8 nM in the test with RKO; 14.4 nM in test [3]; 27 nM in the test with HCT-116; 16.7 nM in [4].
Take `CC(C)C[C@H](NC(=O)[C@H](CCc1ccccc1)NC(=O)CN1CCOCC1)C(=O)N[C@@H](Cc1ccccc1)C(=O)N[C@@H](CC(C)C)C(=O)[C@@]1(C)CO1` [CARFILZOMIB]: the IC50 is 23.8 nM in the test with A-431; 6.1 nM in the test on CCRF-CEM; 27.1 nM with RKO; 13.9 nM in test [3]; 19.3 nM with HCT-116; 23.8 nM in test [4].
